Target: Protein kinase C alpha type (Homo sapiens, UniProt P17252)
Assay: Displacement of [20-3H]-phorbol 12,13-dibutyrate (PDBU) from protein kinase C alpha with phosphatidylserine

Compound	Ki
CCCCCCCCC(=O)OCCC1(CO)C/C(=C\CC(C(C)C)C(C)C)C(=O)O1 (stereo unspecified)	0.459 µM
CCCCCCCC(=O)OCCCC1(CO)CC(=CCC(C(C)C)C(C)C)C(=O)O1 (stereo unspecified)	1.43 µM
CCCCCCCC(=O)OCCCC1(CO)C/C(=C/CC(C(C)C)C(C)C)C(=O)O1 (stereo unspecified)	0.736 µM

Stronger by Ki, values ahead:

Ki	Compound
0.208 µM	CCCCCCCCC(=O)OCCC1(CO)C/C(=C/CC(C(C)C)C(C)C)C(=O)O1 (stereo unspecified)
0.0557 µM	CCCCCCCCCOC(=O)CC1(CO)C/C(=C/CC(C(C)C)C(C)C)C(=O)O1 (stereo unspecified)
0.0622 µM	CCCCCCCCCOC(=O)CC1(CO)C/C(=C\CC(C(C)C)C(C)C)C(=O)O1 (stereo unspecified)
